Measured values published in US6841682B2, “Heterocycles useful in the treatment of benign prostatic hyperplasia” (Janseen Pharmaceutica N.V., priority 1997, dated 2005).
Where two headings read alike, the source gives them in different places.

Columns and labels:
α1a-AR = target: T1, α1a-AR (Homo sapiens, UniProt P35348); test: radioligand ([125I]-HEAT) receptor binding assay, COS cell membranes, α1a-AR
T1 construct: expressed in transfected cells; host or cells: COS cells (pcDNA3 vector, DEAE-dextran transient transfection); membrane preparation
T1 sequence (P35348 1-466): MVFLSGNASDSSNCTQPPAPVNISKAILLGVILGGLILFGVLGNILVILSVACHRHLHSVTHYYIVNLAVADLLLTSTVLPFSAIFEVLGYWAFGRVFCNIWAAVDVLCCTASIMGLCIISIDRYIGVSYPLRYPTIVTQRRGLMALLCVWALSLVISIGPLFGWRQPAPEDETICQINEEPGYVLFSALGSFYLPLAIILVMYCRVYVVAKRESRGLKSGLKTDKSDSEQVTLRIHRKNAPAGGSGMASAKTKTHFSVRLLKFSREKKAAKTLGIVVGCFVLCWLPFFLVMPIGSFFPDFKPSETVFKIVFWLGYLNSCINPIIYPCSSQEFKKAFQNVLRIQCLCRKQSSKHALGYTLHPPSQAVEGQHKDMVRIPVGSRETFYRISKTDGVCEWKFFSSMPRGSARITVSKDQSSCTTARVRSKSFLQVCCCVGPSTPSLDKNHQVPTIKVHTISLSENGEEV
From the text: (§1) The first assay tested the ability of compounds of Formula I to bind to membrane bound receptors α1a-AR, α1b-AR and α1d-AR.
(§2) The DNA sequences of the three cloned human α1-AR subtypes have been published. […] We used published DNA sequence information to design-primers for use in RT-PCR amplification of each subtype to obtain cloned cDNAs. Human poly A+ RNA was obtained from commercially available sources and included hippocampus and prostate samples, sources which have been cited in the literature. For the primary screen a radio ligand binding assay was used which employed membrane preparations from cells expressing the individual cloned receptor cDNAs.
(§3) Each α1 receptor subtype was cloned from poly A+ RNA by the standard method of reverse transcription-polymerase chain reaction (RT-PCR). The following sources of polyA+ RNA were used for the cloning of the al receptor subtypes: α1a-AR, human hippocampus and prostate, α1b-AR, human hippocampus, α1d-AR, human hippocampus. The resulting cDNAs were cloned into the pcDNA3 mammalian expression vector (Invitrogen Corp., San Diego Calif.). Each DNA was sequenced for verification and to detect any possible mutations introduced during the amplification process. Any deviation in sequence from the published consensus for each receptor subtype was corrected by site-directed mutagenesis.
(§4) The three α1-AR subtypes (a, b, d) were transfected into COS cells using a standard DEAE-dextran procedure with a chloroquine shock. In this procedure, each tissue culture dish (100 mm) was inoculated with 3.5×10^6 cells and transfected with 10 μg of DNA. Approximately 72 hours post-transfection, the cells were harvested and COS membranes were prepared. Transfected COS cells from 25 plates (100 mm) were scraped and suspended in 15 mL of TE buffer (50 mM Tris-HCl, 5 mM EDTA, pH7.4). The suspension was disrupted with a homogenizer. It was then centrifuged at 1000×g for 10 minutes at 4° C. The supernatant was centrifuged at 34,500×g for 20 minutes at 4° C. The pellet was resuspended in 5 mL TNE buffer (50 mM Tris-HCl, 5 mM EDTA, 150 mM NaCl, pH7.4). The resulting membrane preparation was aliquoted and stored at −70° C. The protein concentration was determined following membrane solubilization with TritonX-100.
The ability of each compound to bind to each of the α1-AR subtypes was assessed in a receptor binding assay. […] The plate was incubated for 1 hour at room temperature and the reaction mixtures were filtered through a Packard GF/C Unifilter filter plate. The filter plate was dried for 1 hour in a vacuum oven. Scintillation fluid ([…]) was added to each well, and the filter plate was counted in a Packard Topcount scintillation counter. Data was analyzed using GraphPad Prism software.

α1b-AR = target: T2, α1b-AR (Homo sapiens, UniProt P35368); test: radioligand ([125I]-HEAT) receptor binding assay, COS cell membranes, α1b-AR
T2 construct: expressed in transfected cells; host or cells: COS cells (pcDNA3 vector, DEAE-dextran transient transfection); membrane preparation
T2 sequence (P35368 1-520): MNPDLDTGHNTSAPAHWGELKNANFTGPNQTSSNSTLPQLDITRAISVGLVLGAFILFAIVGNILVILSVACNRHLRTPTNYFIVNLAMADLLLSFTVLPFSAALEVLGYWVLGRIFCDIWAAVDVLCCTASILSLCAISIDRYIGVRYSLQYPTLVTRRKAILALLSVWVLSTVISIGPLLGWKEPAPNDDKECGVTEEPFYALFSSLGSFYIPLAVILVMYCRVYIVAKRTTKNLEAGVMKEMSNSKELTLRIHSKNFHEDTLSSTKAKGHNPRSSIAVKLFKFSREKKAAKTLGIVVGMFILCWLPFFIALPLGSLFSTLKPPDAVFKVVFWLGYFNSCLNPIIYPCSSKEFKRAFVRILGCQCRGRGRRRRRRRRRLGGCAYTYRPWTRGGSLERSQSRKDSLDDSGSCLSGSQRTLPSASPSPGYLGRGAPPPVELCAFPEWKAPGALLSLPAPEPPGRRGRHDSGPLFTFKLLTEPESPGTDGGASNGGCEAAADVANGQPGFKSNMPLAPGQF
From the text: as §1
as §2, with “receptor cDNAs. Radiolabeled ligands with binding activity on all three subtypes (non-selective) are commercially available ([125I]-HEAT, [3H]-prazosin).” for “receptor cDNAs.”
as §3, §4
(§5) The ability of each compound to bind to each of the α1-AR subtypes was assessed in a receptor binding assay. [125I]-HEAT, a non-selective α1-AR ligand, was used as the radiolabeled ligand. Each well of a 96-well plate received: 140 μL TNE, 25 μL [125I]-HEAT diluted in TNE (50,000 cpm; final concentration 50 pM), 10 μL test compound diluted in DMSO (final concentration 1 pM-10 μM), […] COS cell membrane preparation expressing one of the three α1-AR subtypes (0.05-0.2 mg membrane protein). The plate was incubated for 1 hour at room temperature and the reaction mixtures were filtered through a Packard GF/C Unifilter filter plate. The filter plate was dried for 1 hour in a vacuum oven. Scintillation fluid ([…]) was added to each well, and the filter plate was counted in a Packard Topcount scintillation counter. Data was analyzed using GraphPad Prism software.
(§6) Tables A-J list the IC50 values expressed in nanomolar concentration for select compounds of the invention in all receptor subtypes.

α1d-AR = target: T3, α1d-AR (Homo sapiens, UniProt P25100); test: radioligand ([125I]-HEAT) receptor binding assay, COS cell membranes, α1d-AR; settings: Tables A-J, [125I]-HEAT 50 pM
T3 construct: expressed in transfected cells; host or cells: COS cells (pcDNA3 vector, DEAE-dextran transient transfection); membrane preparation
T3 sequence (P25100 1-572): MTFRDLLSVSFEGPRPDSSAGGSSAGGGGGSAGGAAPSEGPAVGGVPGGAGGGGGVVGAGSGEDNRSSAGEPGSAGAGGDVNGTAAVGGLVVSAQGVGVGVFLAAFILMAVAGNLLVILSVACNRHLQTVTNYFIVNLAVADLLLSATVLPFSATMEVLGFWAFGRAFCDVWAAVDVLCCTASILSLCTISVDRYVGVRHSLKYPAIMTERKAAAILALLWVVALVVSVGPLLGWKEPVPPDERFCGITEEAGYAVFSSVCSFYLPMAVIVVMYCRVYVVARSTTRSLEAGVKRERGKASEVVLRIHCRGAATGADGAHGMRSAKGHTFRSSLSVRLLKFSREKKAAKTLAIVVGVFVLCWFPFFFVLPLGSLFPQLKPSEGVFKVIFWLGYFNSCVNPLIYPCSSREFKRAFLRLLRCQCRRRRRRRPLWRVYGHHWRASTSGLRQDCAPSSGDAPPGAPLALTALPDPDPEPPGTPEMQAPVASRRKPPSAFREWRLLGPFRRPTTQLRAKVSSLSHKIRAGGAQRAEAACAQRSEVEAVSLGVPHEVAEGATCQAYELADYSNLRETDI
From the text: as §1
as §2, with “receptor cDNAs. Radiolabeled ligands with binding activity on all three subtypes (non-selective) are commercially available ([125I]-HEAT, [3H]-prazosin).” for “receptor cDNAs.”
as §3, §4, §5, §6

α1c = target: T4, α1c (Homo sapiens, UniProt P25100); test: α1c screen (as named in the preparative examples); format: binding; settings: stated in the preparative example
T4 construct: expressed in transfected cells
T4 sequence (P25100 1-572): T3 sequence (P25100 1-572)
From the text: as §1
as §2, with “receptor cDNAs. Radiolabeled ligands with binding activity on all three subtypes (non-selective) are commercially available ([125I]-HEAT, [3H]-prazosin).” for “receptor cDNAs.”
as §3, §4
The ability of each compound to bind to each of the α1-AR subtypes was assessed in a receptor binding assay. [125I]-HEAT, a non-selective α1-AR ligand, was used as the radiolabeled ligand. […] Scintillation fluid (25 mL) was added to each well, and the filter plate was counted in a Packard Topcount scintillation counter. Data was analyzed using GraphPad Prism software.

[1] = Tables A-J, [125I]-HEAT 50 pM, COS membranes, read-out: α1a IC50
[2] = Tables A-J, [125I]-HEAT 50 pM, COS membranes, read-out: α1b IC50
[3] = stated in the preparative example, read-out: activity in the α1a screen
[4] = stated in the preparative example, read-out: activity in the α1b screen

IC50 (α1a-AR; [1]) [nM]	IC50 (α1b-AR; [2]) [nM]	IC50 (α1d-AR) [nM]	IC50 (α1a-AR; [3]) [nM]	IC50 (α1b-AR; [4]) [nM]	IC50 (α1c) [nM]	SMILES
147	3320	291				CC(C)Oc1ccccc1N1CCN(Cc2cccc(CN3C(=O)CCCC3c3ccccc3)n2)CC1 (centres unmarked) [compound 47]
2.5	3470	79				CC(C)Oc1ccccc1N1CCN(Cc2ncc(CN3CCCC3=O)s2)CC1 [Compound 17]
			28	> 10000	253	CC(C)Oc1ccccc1N1CCN(CC(O)CC(=O)CN2CCCCC2=O)CC1 (centres unmarked) [compound 35]
98	96	197				CC(C)Oc1ccccc1N1CCN(Cc2cccc(CN3C(=O)CCCC3=O)n2)CC1 [compound 45]
1	768	185				CC(C)Oc1ccccc1N1CCN(Cc2cc(CN3CCCCC3=O)cs2)CC1 [compound 55]
2.2	> 5980	131				CC(C)Oc1ccccc1N1CCN(Cc2cc(CN3CCCC3=O)no2)CC1 [Compound 28]
89	> 10000	1520				CC(C)Oc1ccccc1N1CCN(CC2=NOC(CN3CCCCC3=O)C2)CC1 (centres unmarked) [Compound 9]
69	1750	174				CC(C)Oc1ccccc1N1CCN(Cc2cccc(CN3C(=O)CCC3=O)n2)CC1 [compound 46]
1730	3020	500				COc1ccccc1N1CCN(Cc2cccc(CN3CCCCC3=O)n2)CC1 [compound 54]
0.83	620	24				CC(C)Oc1ccccc1N1CCN(Cc2cc(CN3CCCC3=O)cs2)CC1 [Compound 32]
6.3	> 10000	215	18	5320	602	CC(C)Oc1ccccc1N1CCN(C/C=C/C(=O)CN2CCCCC2=O)CC1 [compound 36]
80	> 10000	46				COc1ccccc1N1CCN(Cc2ccc(CN3CCCC3=O)s2)CC1 [Compound 23]

The next lines start with the compound.

SMILES	IC50 (α1a-AR; [1]) [nM]	IC50 (α1b-AR; [2]) [nM]	IC50 (α1d-AR) [nM]	IC50 (α1a-AR; [3]) [nM]	IC50 (α1b-AR; [4]) [nM]	IC50 (α1c) [nM]
O=C1CCCN1Cc1cc(CN2CCN(c3ccccc3Oc3ccccc3)CC2)on1 [compound 38]	30	4410	341			
CC(C)Oc1ccccc1N1CCN(CC(=O)CC(=O)CN2CCCCC2=O)CC1 [compound 2]				417	> 10000	6040
O=C1CCCCCN1Cc1cc(CN2CCN(c3ccccc3Oc3ccccc3)CC2)on1 [compound 39]	172	> 10000	570			
CC(C)Oc1ccccc1N1CCN(Cc2cc(CN3CCCCCC3=O)cs2)CC1 [compound 56]	3.7	1230	95			
CC(C)Oc1ccccc1N1CCN(Cc2cc(CN3CCCCC3=O)nc(N)n2)CC1 [Compound 4]	79	> 10000	> 10000			
COc1ccccc1N1CCN(Cc2ccc(CN3CCCCC3=O)s2)CC1 [compound 48]	29	> 10000	26			
COc1ccccc1N1CCN(Cc2cccc(CN3CCCCCC3=O)n2)CC1 [compound 42]	8590	1420	526			
CC(C)Oc1ccccc1N1CCN(Cc2cc(CN3CCCCC3=O)on2)CC1 [Compound 8]	3.8		272			
COc1ccccc1N1CCN(Cc2cccc(CN3CCCCCCC3=O)n2)CC1 [compound 44]	2030	3940	577			
COc1ccccc1N1CCN(Cc2ccc(CN3CCCCCC3=O)s2)CC1 [compound 49]	37	> 10000	24			
COc1ccccc1N1CCN(Cc2ccc(CN3CCCCC3CO)s2)CC1 (centres unmarked) [compound 50]	838	> 5140	261			
COc1ccccc1N1CCN(Cc2cccc(CN3CCCC3=O)n2)CC1 [compound 43]	7720	2640	1560			
COc1ccccc1N1CCN(Cc2cccc(CN3CCC3=O)n2)CC1 [compound 41]	7630	3170	1680			
CC(C)Oc1ccccc1N1CCN(CC(O)CC(O)CN2CCCCC2=O)CC1 (centres unmarked) [compound 37]				53	> 10000	224
CC(C)Oc1ccccc1N1CCN(Cc2nc(CN3CCCCC3=O)co2)CC1 [Compound 12]	4640	> 10000	> 10000			
